# Assay results: patent publication US6566084B1, “Catalytic antibodies against cocaine and methods of using and producing same” (priority 1992, dated 2003)
# Tests used:
# [1] = in vivo; cited from earlier work
# [2] = Spontaneous hydrolysis of the methyl ester of cocaine to benzoyl ecgonine (HPLC); settings: buffer, pH 7
# [3] = equine BChE, ph7.4, published sources; cited from earlier work
# mAb 3B9 = experiment: Inhibition of 3B9-catalyzed cocaine hydrolysis; assay type: biochemical, BALB/c mice; settings: 1 mM
# mAb 6A12 = experiment: Inhibition of 6A12-catalyzed cocaine hydrolysis; settings: 1 mM
compound,measurement,setting,value
COC(=O)[C@H]1[C@@H](OC(=O)c2ccccc2)C[C@@H]2CC[C@H]1N2C [cocaine],dose excreted unchanged in the urine,[1],< 10%
same,half-life,[2],20 h
"BChE: equine butyrylcholinesterase, the principal cocaine esterase in serum",Kcat,[3],0.02 s⁻¹
same,Km,[3],38 µM
CNC(=O)Oc1ccc2c(c1)[C@]1(C)CCN(C)[C@@H]1N2C [eserine],effect of serum esterase inhibitor on enzyme,mAb 3B9,unaffected
same,effect of serum esterase inhibitor on enzyme,mAb 6A12,unaffected
